{"source": "patent US10633348B2", "about": "“Methods to treat lymphoplasmacytic lymphoma” (Dana-Farber Cancer Institute, Inc., priority 2013, dated 2020)", "format_in_all_cases": "cell-based", "key": {"AGK": {"tested_on": "AGK"}, "CDC2": {"tested_on": "CDC2"}, "CDK11, CDK8": {"tested_on": "CDK11, CDK8", "assay": "KiNativ kinase profiling in A375 cells", "settings": "Lys2, SEQ ID NO 20, 1.0 μM"}, "CSK": {"tested_on": "CSK"}, "FGR": {"tested_on": "FGR"}, "GSK3A": {"tested_on": "GSK3A"}, "GSK3B": {"tested_on": "GSK3B"}, "HPK1": {"tested_on": "HPK1"}, "ITPK1": {"tested_on": "ITPK1"}, "JAK3 domain2": {"tested_on": "JAK3 domain2"}, "MAP2K1": {"tested_on": "MAP2K1"}, "MAP2K1, MAP2K2": {"tested_on": "MAP2K1, MAP2K2", "assay": "KiNativ kinase profiling in A375 cells", "settings": "Lys2, SEQ ID NO 79, 1.0 μM"}, "MAP2K7": {"tested_on": "MAP2K7"}, "MARK3": {"tested_on": "MARK3"}, "MET": {"tested_on": "MET"}, "MST4": {"tested_on": "MST4"}, "NEK4": {"tested_on": "NEK4"}, "NEK6, NEK7": {"tested_on": "NEK6, NEK7", "assay": "KiNativ kinase profiling in A375 cells", "settings": "Lys2, SEQ ID NO 122, 1.0 μM"}, "NEK7": {"tested_on": "NEK7"}, "PDK1": {"tested_on": "PDK1"}, "PEK": {"tested_on": "PEK"}, "PHKG1": {"tested_on": "PHKG1"}, "PI4KA, PI4KAP2": {"tested_on": "PI4KA, PI4KAP2", "assay": "KiNativ kinase profiling in A375 cells", "settings": "ATP, SEQ ID NO 141, 1.0 μM"}, "PIP4K2B": {"tested_on": "PIP4K2B"}, "PKD2": {"tested_on": "PKD2"}, "ROCK1, ROCK2": {"tested_on": "ROCK1, ROCK2", "assay": "KiNativ kinase profiling in A375 cells", "settings": "Lys2, SEQ ID NO 163, 1.0 μM"}, "RSKL1": {"tested_on": "RSKL1"}, "STLK5": {"tested_on": "STLK5"}, "TLK1": {"tested_on": "TLK1"}, "WEE1": {"tested_on": "WEE1"}, "Wnk1, Wnk2": {"tested_on": "Wnk1, Wnk2", "assay": "KiNativ kinase profiling in A375 cells", "settings": "ATP Loop, SEQ ID NO 193, 1.0 μM"}, "YANK3": {"tested_on": "YANK3"}, "ZC2/TNIK": {"tested_on": "ZC2/TNIK"}}}
{"smiles": "CCN1CCN(Cc2ccc(NC(=O)c3ccc(C)c(Oc4cc(N)ncn4)c3)cc2C(F)(F)F)CC1", "note": "[(A-4), 3-((6-aminopyrimidin-4-yl)oxy)-N-(4-((4-ethylpiperazin-1-yl)methyl)-3-(trifluoromethyl)phenyl)-4-methylbenzamide]", "values": [{"measurement": "inhibition of kinase labeling", "setting": "AGK", "value": "−31.4", "unit": "%"}, {"measurement": "inhibition of kinase labeling", "setting": "CDC2", "value": "−2.3", "unit": "%"}, {"measurement": "inhibition of kinase labeling", "setting": "CDK11, CDK8", "value": 50.0, "unit": "%"}, {"measurement": "inhibition of kinase labeling", "setting": "CSK", "value": 15.3, "unit": "%"}, {"measurement": "inhibition of kinase labeling", "setting": "FGR", "value": 31.9, "unit": "%"}, {"measurement": "inhibition of kinase labeling", "setting": "GSK3A", "value": 36.0, "unit": "%"}, {"measurement": "inhibition of kinase labeling", "setting": "GSK3B", "value": 0.5, "unit": "%"}, {"measurement": "inhibition of kinase labeling", "setting": "HPK1", "value": 68.1, "unit": "%"}, {"measurement": "inhibition of kinase labeling", "setting": "ITPK1", "value": 1.2, "unit": "%"}, {"measurement": "inhibition of kinase labeling", "setting": "JAK3 domain2", "value": 7.7, "unit": "%"}, {"measurement": "inhibition of kinase labeling", "setting": "MAP2K1", "value": 11.4, "unit": "%"}, {"measurement": "inhibition of kinase labeling", "setting": "MAP2K1, MAP2K2", "value": "−16.3", "unit": "%"}, {"measurement": "inhibition of kinase labeling", "setting": "MAP2K7", "value": "−38.2", "unit": "%"}, {"measurement": "inhibition of kinase labeling", "setting": "MARK3", "value": "−26.1", "unit": "%"}, {"measurement": "inhibition of kinase labeling", "setting": "MET", "value": "−21.0", "unit": "%"}, {"measurement": "inhibition of kinase labeling", "setting": "MST4", "value": 6.2, "unit": "%"}, {"measurement": "inhibition of kinase labeling", "setting": "NEK4", "value": 1.5, "unit": "%"}, {"measurement": "inhibition of kinase labeling", "setting": "NEK6, NEK7", "value": "−12.5", "unit": "%"}, {"measurement": "inhibition of kinase labeling", "setting": "NEK7", "value": "−7.2", "unit": "%"}, {"measurement": "inhibition of kinase labeling", "setting": "PDK1", "value": 18.8, "unit": "%"}, {"measurement": "inhibition of kinase labeling", "setting": "PEK", "value": 9.4, "unit": "%"}, {"measurement": "inhibition of kinase labeling", "setting": "PHKG1", "value": "−49.0", "unit": "%"}, {"measurement": "inhibition of kinase labeling", "setting": "PI4KA, PI4KAP2", "value": 19.3, "unit": "%"}, {"measurement": "inhibition of kinase labeling", "setting": "PIP4K2B", "value": "−44.7", "unit": "%"}, {"measurement": "inhibition of kinase labeling", "setting": "PKD2", "value": "−6.9", "unit": "%"}, {"measurement": "inhibition of kinase labeling", "setting": "ROCK1, ROCK2", "value": 22.0, "unit": "%"}, {"measurement": "inhibition of kinase labeling", "setting": "RSKL1", "value": 31.5, "unit": "%"}, {"measurement": "inhibition of kinase labeling", "setting": "STLK5", "value": 5.0, "unit": "%"}, {"measurement": "inhibition of kinase labeling", "setting": "TLK1", "value": 4.9, "unit": "%"}, {"measurement": "inhibition of kinase labeling", "setting": "WEE1", "value": 23.2, "unit": "%"}, {"measurement": "inhibition of kinase labeling", "setting": "Wnk1, Wnk2", "value": 24.2, "unit": "%"}, {"measurement": "inhibition of kinase labeling", "setting": "YANK3", "value": 27.7, "unit": "%"}, {"measurement": "inhibition of kinase labeling", "setting": "ZC2/TNIK", "value": 23.9, "unit": "%"}]}
